{"source": "ChEMBL document CHEMBL5352388", "about": "(Eur J Med Chem, 2022)", "key": {"[1]": {"system": "A549", "test": "Induction of apoptosis in human A549 cells assessed as downregulation of AKT phosphorylation incubated for 72 hrs by Western blotting assay", "type": "functional, cell-based"}, "[2]": {"test": "in vitro", "conditions": "human, THLE-2 cells", "description": "Antiproliferative activity against human THLE-2 cells assessed as inhibition of cell growth incubated for 72 hrs by CCK-8 assay"}, "[3]": {"test": "Toxicity in BALB/c mouse xenografted with human A549 cells assessed as change in body weight at 10 mg/kg,ip administrated for 15 days", "type": "organism-based", "conditions": "in vivo, 360 h, time 15 day"}, "[4]": {"target": "T1, CYP1A2 (Homo sapiens, UniProt P05177)", "T1 sequence (P05177 whole entry)": "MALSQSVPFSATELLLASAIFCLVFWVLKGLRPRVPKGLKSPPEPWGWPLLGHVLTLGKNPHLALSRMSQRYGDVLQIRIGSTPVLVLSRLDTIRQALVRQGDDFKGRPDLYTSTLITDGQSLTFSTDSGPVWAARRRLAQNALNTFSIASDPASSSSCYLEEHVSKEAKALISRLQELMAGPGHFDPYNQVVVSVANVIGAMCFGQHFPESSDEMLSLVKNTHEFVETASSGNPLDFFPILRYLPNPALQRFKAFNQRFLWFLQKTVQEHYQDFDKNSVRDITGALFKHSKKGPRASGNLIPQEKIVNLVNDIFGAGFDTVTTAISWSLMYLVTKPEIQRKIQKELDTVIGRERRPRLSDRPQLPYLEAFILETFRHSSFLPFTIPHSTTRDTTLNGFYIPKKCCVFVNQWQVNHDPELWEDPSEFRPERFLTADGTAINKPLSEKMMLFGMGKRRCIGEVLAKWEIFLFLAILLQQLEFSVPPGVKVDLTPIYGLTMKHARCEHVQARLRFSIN", "test": "Inhibition of CYP1A2 (unknown origin) at 10 uM incubated for 20 mins in presence of NADPH by LC/MS/MS analysis relative to control", "type": "ADME"}, "[5]": {"target": "T2, Amine oxidase [flavin-containing] B (Homo sapiens, UniProt P27338)", "T2 sequence (P27338 whole entry)": "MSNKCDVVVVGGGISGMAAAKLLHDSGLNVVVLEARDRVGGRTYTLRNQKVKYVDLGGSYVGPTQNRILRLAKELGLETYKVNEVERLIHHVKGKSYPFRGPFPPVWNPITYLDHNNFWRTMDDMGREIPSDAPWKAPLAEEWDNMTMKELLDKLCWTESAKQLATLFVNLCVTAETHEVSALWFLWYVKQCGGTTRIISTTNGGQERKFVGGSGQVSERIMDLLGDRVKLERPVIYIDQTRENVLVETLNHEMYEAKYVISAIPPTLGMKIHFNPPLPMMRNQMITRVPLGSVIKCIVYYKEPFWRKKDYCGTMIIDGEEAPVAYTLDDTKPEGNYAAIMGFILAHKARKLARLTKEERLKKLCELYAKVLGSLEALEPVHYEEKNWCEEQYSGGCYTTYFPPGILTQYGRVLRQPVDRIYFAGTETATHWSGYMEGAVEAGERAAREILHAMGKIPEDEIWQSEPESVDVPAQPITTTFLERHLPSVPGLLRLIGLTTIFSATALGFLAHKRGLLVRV", "description": "Inhibition of recombinant MAO-B (unknown origin) incubated for 60 mins by luminescence based flow cytometry"}, "[6]": {"system": "A549", "test": "Antitumor activity against human A549 cells xenografted in BALB/c mouse assessed as reduction in tumor growth at 10 mg/kg,ip administrated for 15 days", "type": "functional, organism-based", "conditions": "time 15.0 day"}, "[7]": {"system": "A549", "test": "Antitumor activity against human A549 cells xenografted in BALB/c mouse assessed as appearance of pyknosis at 20 mg/kg,ip administrated for 15 days", "type": "functional, organism-based", "conditions": "time 15.0 day"}, "[8]": {"test": "Intrinsic clearance in human liver measured upto 60 mins in presence of NADPH by LC/MS/MS analysis", "type": "ADME, tissue-based", "conditions": "read-out: CLH"}, "[9]": {"test": "AUC (0-infinity) in Sprague-Dawley rat at 10 mg/kg,po by LC-MS/MS analysis", "type": "ADME, organism-based", "design": "dose 10 mg/kg, route po", "conditions": "in vivo"}, "[10]": {"target": "T3, Lysine-specific histone demethylase 1A (Homo sapiens, UniProt O60341)", "test": "Inhibition of LSD1 in human A549 cells assessed as increase in H3K9me2 protein level at 1 to 4 uM incubated for 72 hrs by Western blotting assay", "type": "cell-based", "conditions": "dose 1-4 µM"}, "[11]": {"target": "T3, Lysine-specific histone demethylase 1A", "test": "Inhibition of LSD1 in human A549 cells assessed as increase in H3K4me1 protein level at 1 to 4 uM incubated for 72 hrs by Western blotting assay", "type": "cell-based", "conditions": "dose 1-4 µM"}, "[12]": {"test": "Half life in Sprague-Dawley rat at 10 mg/kg,po by LC-MS/MS analysis", "type": "ADME, organism-based", "conditions": "in vivo"}, "[13]": {"system": "A549", "test": "Induction of apoptosis in human A549 cells assessed as downregulation of mTOR phosphorylation incubated for 72 hrs by Western blotting assay", "type": "functional, cell-based"}, "[14]": {"target": "T3, Lysine-specific histone demethylase 1A", "description": "Inhibition of recombinant human LSD1 using fluorometric substrate by HRP based fluorimeter microplate reader assay"}, "[15]": {"target": "T3, Lysine-specific histone demethylase 1A", "test": "Inhibition of LSD1 (unknown origin) assessed as inhibition constant using H3K4me2 as substrate by Lineweaver-Burk plot analysis"}, "[16]": {"system": "MCF7", "test": "cells", "conditions": "Homo sapiens, MCF7, 72 h", "description": "Antiproliferative activity against human MCF7 cells assessed as inhibition of cell growth incubated for 72 hrs by CCK-8 assay"}, "[17]": {"system": "A549", "test": "Antitumor activity against human A549 cells xenografted in BALB/c mouse assessed as decrease in tumor cell density at 20 mg/kg,ip administrated for 15 days", "type": "functional, organism-based", "conditions": "time 15.0 day"}, "[18]": {"system": "A549", "test": "Antitumor activity against human A549 cells xenografted in BALB/c mouse assessed as chromatin condensation at 10 mg/kg,ip administrated for 15 days", "type": "functional, organism-based", "conditions": "time 15.0 day"}, "[19]": {"system": "A549", "test": "Antitumor activity against human A549 cells xenografted in BALB/c mouse assessed as appearance of pyknosis at 10 mg/kg,ip administrated for 15 days", "type": "functional, organism-based", "conditions": "time 15.0 day"}, "[20]": {"test": "Volume of distribution in steady state in Sprague-Dawley rat at 3 mg/kg,iv by LC-MS/MS analysis", "type": "ADME, organism-based", "conditions": "in vivo, read-out: Vdss"}, "[21]": {"system": "A549", "test": "Antitumor activity against human A549 cells xenografted in BALB/c mouse assessed as reduction in KI67 positive cells at 20 mg/kg,ip administrated for 15 days", "type": "functional, organism-based", "conditions": "time 15.0 day"}, "[22]": {"target": "CYP3A4 (Homo sapiens, UniProt P08684)", "sequence (P08684 whole entry)": "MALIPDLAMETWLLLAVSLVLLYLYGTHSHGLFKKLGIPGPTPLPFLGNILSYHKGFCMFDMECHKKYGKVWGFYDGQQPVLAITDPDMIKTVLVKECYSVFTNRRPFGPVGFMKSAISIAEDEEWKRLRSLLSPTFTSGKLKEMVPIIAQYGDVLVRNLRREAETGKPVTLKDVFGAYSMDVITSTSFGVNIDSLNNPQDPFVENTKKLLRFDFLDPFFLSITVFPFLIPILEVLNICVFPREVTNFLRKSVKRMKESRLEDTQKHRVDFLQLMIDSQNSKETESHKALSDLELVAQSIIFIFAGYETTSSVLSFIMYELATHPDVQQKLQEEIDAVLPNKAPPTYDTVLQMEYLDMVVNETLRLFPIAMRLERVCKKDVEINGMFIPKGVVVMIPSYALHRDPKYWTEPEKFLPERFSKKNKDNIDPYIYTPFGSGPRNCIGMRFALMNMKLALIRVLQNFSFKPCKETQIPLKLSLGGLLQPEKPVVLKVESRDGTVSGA", "test": "Inhibition of CYP3A4 (unknown origin) at 10 uM incubated for 20 mins in presence of NADPH by LC/MS/MS analysis relative to control", "type": "ADME"}, "[23]": {"target": "T3, Lysine-specific histone demethylase 1A", "test": "Inhibition of LSD1 in human A549 cells assessed as increase in H3K9me1 protein level at 1 to 4 uM incubated for 72 hrs by Western blotting assay", "type": "cell-based", "conditions": "dose 1-4 µM"}, "[24]": {"target": "CYP2D6 (Homo sapiens, UniProt P10635)", "sequence (P10635 whole entry)": "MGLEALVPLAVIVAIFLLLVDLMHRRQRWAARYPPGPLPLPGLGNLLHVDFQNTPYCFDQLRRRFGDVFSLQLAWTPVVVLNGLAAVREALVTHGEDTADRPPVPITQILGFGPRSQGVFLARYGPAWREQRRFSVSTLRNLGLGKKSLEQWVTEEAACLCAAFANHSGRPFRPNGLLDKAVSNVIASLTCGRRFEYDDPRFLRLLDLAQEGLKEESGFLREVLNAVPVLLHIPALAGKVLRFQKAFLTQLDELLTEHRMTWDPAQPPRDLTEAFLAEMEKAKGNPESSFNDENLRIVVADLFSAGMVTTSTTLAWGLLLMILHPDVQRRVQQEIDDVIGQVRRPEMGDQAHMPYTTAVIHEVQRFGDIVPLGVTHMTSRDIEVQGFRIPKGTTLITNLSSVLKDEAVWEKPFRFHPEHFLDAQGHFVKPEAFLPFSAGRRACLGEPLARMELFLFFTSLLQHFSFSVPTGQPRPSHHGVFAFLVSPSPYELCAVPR", "test": "Inhibition of CYP2D6 (unknown origin) at 10 uM incubated for 20 mins in presence of NADPH by LC/MS/MS analysis relative to control", "type": "ADME"}, "[25]": {"system": "HeLa", "test": "Antiproliferative activity against human HeLa cells assessed as inhibition of cell growth incubated for 72 hrs by CCK-8 assay", "type": "functional, cell-based"}}, "note": "The source made the active and inactive calls. The calls are words filed in the database; no cut-off is given here.", "data": [{"smiles": "Cc1ccc(-c2cc3c(cc2-c2ccc(C#N)cc2)c(C(=O)N2CCC(N)CC2)cn3S(=O)(=O)c2ccc(F)cc2)cc1", "values": [{"measurement": "Activity", "setting": "[1]", "result": "Active"}, {"measurement": "IC50 at 72 h", "setting": "[2]", "result": 3.1, "unit": "µM"}, {"measurement": "Activity", "setting": "[3]", "result": "Non-Toxic"}, {"measurement": "inhibition at 20 min, 10 µM", "setting": "[4]", "result": 0, "unit": "%"}, {"measurement": "IC50", "setting": "[5]", "result": 0.72, "unit": "µM"}, {"measurement": "Activity", "setting": "[6]", "result": "Active"}, {"measurement": "Activity", "setting": "[7]", "result": "Active"}, {"measurement": "CLint scaled", "setting": "[8]", "result": 8.6, "unit": "mL/min/kg"}, {"measurement": "AUC(0-inf)", "setting": "[9]", "result": 362, "unit": "ng·h/mL"}, {"measurement": "inhibition", "setting": "[10]", "result": "Dose-Dependent Effect"}, {"measurement": "inhibition", "setting": "[11]", "result": "Dose-Dependent Effect"}, {"measurement": "half-life", "setting": "[12]", "result": 6.27, "unit": "h"}, {"measurement": "Activity", "setting": "[13]", "result": "Active"}, {"measurement": "IC50", "setting": "[14]", "result": 0.05, "unit": "µM"}, {"measurement": "Ki", "setting": "[15]", "result": 0.155, "unit": "µM"}, {"measurement": "IC50", "setting": "[16]", "result": 3.4, "unit": "µM"}, {"measurement": "Activity", "setting": "[17]", "result": "Active"}, {"measurement": "Activity", "setting": "[18]", "result": "Active"}, {"measurement": "Activity", "setting": "[19]", "result": "Active"}, {"measurement": "Vd", "setting": "[20]", "result": 17.4, "unit": "L/kg"}, {"measurement": "Activity", "setting": "[21]", "result": "Active"}, {"measurement": "inhibition at 20 min, 10 µM", "setting": "[22]", "result": 56.8, "unit": "%"}, {"measurement": "inhibition", "setting": "[23]", "result": "Dose-Dependent Effect"}, {"measurement": "inhibition at 20 min, 10 µM", "setting": "[24]", "result": 2.9, "unit": "%"}, {"measurement": "IC50", "setting": "[25]", "result": 3.3, "unit": "µM"}]}]}
